Reference: ChEMBL document CHEMBL5344475, “Indole-containing pharmaceuticals: targets, pharmacological activities, and SAR studies” (RSC Med Chem, 2024)

Tests used:
[1] = molecular target: 5-hydroxytryptamine receptor 1B (Homo sapiens, UniProt P28222); assay: Binding affinity to 5-HT1B receptor (unknown origin) assessed as inhibition constant
[2] = Plasma clearance in iv dosed C57BL/6J mouse; format: ADME, organism-based
[3] = Cmax in human plasma; format: ADME, cell-free
[4] = Terminal half life in human; format: ADME; settings: read-out: beta t1/2 (converted)
[5] = Apparent oral clearance in human at 1 mg, po by LC-MS/MS analysis; format: ADME, organism-based; settings: in vivo
[6] = Binding affinity to MT1 receptor (unknown origin) assessed as inhibition constant; parameters: species or system Homo sapiens
[7] = Terminal half life in human at 10 mg/kg, iv; settings: in vivo, read-out: beta t1/2 (converted)
[8] = Half life of compound in PBS buffer; format: physicochemical
[9] = molecular target: Prostaglandin G/H synthase 1 (Homo sapiens, UniProt P23219); assay: Inhibition of COX1 (unknown origin)
[10] = molecular target: T1, Prostaglandin G/H synthase 2 (Homo sapiens, UniProt P35354); assay: Inhibition of COX-2 (unknown origin) using arachidonic acid as substrate preincubated for 15 mins followed by substrate addition by colorimetric assay
T1 sequence (P35354 whole entry): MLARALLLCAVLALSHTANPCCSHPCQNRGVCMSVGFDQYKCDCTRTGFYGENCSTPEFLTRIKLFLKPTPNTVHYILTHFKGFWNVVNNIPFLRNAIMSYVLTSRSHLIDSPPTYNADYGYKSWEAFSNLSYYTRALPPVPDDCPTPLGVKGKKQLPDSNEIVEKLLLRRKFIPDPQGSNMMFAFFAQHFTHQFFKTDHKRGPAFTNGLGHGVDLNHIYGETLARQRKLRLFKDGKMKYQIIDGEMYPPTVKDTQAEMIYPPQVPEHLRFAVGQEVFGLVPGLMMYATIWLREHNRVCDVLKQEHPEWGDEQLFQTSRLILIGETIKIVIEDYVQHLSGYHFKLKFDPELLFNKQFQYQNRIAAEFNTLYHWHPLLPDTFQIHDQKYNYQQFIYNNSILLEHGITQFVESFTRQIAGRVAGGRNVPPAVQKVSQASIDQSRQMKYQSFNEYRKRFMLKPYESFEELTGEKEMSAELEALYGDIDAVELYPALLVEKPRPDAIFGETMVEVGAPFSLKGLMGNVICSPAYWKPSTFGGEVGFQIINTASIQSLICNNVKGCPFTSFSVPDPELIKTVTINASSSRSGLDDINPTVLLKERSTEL

[11] = Apparent oral clearance in human
[12] = Volume of distribution in Wistar rat; format: ADME; settings: in vivo
[13] = Elimination half life in human; format: ADME; settings: read-out: beta t1/2 (converted)
[14] = Plasma clearance in iv dosed human
[15] = Binding affinity to 5-HT3R (unknown origin) assessed as inhibition constant; parameters: species or system Homo sapiens
[16] = Volume of distribution at steady state in iv dosed human; settings: in vivo, read-out: Vdss
[17] = Oral bioavailability in human; format: ADME, organism-based; settings: in vivo
[18] = Tmax in human plasma; format: ADME, cell-free
[19] = AUC in Sprague-Dawley rat at 10 mg/kg, iv by LC-MS/MS analysis; format: ADME, organism-based; parameters: dose 10 mg/kg, route iv; settings: in vivo
[20] = AUC in ICR mouse; format: ADME; settings: in vivo
[21] = Oral bioavailability in mouse; format: ADME, organism-based; settings: in vivo
[22] = Elimination half life in human at 7.5 to 100 mg; format: ADME; settings: dose 7.5-100 mg, read-out: beta t1/2 (converted)
[23] = molecular target: Dopamine receptor; assay: Inhibition of dopamine receptor (unknown origin); format: protein assay, Homo sapiens
[24] = Apparent oral renal clearance in human; format: ADME; settings: read-out: CL(app)
[25] = molecular target: D(1A) dopamine receptor (Homo sapiens, UniProt P21728); assay: Binding affinity to dopamine D1 receptor (unknown origin) assessed as inhibition constant
[26] = Tmax in human; format: ADME
[27] = Half life in human; format: ADME
[28] = Half life in human; settings: in vivo
[29] = molecular target: Beta-2 adrenergic receptor (Homo sapiens, UniProt P07550); assay: Binding affinity to human beta 2 adrenergic receptor assessed as inhibition constant
[30] = Terminal half life in iv dosed mouse; format: ADME, organism-based; settings: in vivo, read-out: beta t1/2 (converted)
[31] = molecular target: 5-hydroxytryptamine receptor 2B (Homo sapiens, UniProt P41595); assay: Binding affinity to 5-HT2B receptor (unknown origin) assessed as inhibition constant
[32] = Volume of distribution in human; format: ADME
[33] = Elimination half life in rat; format: ADME; settings: in vivo, read-out: beta t1/2 (converted)
[34] = Volume of distribution in human at 2.5 mg; format: ADME

D(1A) dopamine receptor, sequence (P21728 whole entry): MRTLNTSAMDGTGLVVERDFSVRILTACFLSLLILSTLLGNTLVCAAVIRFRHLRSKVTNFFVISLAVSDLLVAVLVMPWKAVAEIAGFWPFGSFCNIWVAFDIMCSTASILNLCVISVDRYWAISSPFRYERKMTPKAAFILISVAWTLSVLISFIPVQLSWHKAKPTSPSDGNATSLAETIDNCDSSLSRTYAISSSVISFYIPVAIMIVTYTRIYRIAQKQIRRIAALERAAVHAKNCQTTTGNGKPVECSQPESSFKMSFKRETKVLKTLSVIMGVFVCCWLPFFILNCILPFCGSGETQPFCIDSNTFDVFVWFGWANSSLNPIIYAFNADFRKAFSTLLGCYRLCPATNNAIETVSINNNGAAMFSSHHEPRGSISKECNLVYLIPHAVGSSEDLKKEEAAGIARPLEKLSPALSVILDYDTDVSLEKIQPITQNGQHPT
5-hydroxytryptamine receptor 2B, sequence (P41595 whole entry): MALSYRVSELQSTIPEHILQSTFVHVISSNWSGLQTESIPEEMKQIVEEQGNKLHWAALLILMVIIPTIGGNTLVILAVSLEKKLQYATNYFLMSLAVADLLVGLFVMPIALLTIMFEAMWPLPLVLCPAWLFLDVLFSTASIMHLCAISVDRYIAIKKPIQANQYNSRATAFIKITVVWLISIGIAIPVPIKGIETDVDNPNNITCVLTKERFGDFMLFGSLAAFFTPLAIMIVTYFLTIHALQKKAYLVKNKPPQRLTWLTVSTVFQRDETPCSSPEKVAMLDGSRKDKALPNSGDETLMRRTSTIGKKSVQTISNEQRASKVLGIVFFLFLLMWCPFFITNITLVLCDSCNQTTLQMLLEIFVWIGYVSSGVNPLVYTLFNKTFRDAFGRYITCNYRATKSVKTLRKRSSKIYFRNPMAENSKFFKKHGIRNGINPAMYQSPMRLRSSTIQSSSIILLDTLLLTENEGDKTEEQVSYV
5-hydroxytryptamine receptor 1B, sequence (P28222 whole entry): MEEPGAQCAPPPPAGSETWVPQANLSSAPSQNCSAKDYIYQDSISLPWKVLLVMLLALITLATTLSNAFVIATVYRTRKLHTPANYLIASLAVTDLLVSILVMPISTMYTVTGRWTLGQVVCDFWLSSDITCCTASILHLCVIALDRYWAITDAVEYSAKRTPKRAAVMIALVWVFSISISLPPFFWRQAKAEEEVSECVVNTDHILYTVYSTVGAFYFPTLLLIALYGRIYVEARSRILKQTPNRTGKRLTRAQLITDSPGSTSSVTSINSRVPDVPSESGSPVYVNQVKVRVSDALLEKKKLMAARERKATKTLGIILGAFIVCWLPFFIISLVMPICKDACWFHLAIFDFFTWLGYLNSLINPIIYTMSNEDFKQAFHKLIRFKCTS
Beta-2 adrenergic receptor, sequence (P07550 whole entry): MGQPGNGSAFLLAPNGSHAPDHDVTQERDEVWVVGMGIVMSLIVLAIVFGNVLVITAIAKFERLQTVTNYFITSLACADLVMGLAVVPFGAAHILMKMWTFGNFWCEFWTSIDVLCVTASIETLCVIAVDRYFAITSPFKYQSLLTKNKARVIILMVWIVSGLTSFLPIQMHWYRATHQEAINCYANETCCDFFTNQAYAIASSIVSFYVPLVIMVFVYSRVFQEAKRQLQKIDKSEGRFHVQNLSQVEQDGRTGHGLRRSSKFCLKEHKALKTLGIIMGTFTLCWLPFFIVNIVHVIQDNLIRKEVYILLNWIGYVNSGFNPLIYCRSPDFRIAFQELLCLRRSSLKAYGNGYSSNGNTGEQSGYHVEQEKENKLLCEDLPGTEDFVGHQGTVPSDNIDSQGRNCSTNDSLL
Prostaglandin G/H synthase 1, sequence (P23219 whole entry): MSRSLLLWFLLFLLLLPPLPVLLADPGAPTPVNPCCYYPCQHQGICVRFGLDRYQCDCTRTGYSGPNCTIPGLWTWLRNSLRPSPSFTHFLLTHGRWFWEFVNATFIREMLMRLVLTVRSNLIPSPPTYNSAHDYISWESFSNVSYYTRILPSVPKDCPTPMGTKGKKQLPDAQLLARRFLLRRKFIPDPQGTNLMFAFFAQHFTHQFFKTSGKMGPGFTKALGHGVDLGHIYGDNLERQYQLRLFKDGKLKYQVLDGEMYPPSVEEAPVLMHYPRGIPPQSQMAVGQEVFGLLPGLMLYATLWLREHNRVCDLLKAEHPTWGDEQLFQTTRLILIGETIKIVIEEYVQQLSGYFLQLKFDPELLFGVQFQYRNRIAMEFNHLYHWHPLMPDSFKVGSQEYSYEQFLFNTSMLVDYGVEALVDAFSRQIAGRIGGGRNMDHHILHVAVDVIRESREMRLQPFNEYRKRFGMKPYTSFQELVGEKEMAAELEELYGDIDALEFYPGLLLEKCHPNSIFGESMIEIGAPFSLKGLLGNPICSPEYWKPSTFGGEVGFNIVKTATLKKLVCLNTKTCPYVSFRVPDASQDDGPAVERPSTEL

SMILES: CNS(=O)(=O)CCc1ccc2[nH]cc(C3CCN(C)CC3)c2c1
- Ki [1]: 1.5 nM

SMILES: COc1ccc2[nH]c3c(c2c1)CCN[C@]31CS[C@@H]2c3c(OC(C)=O)c(C)c4c(c3[C@@H](COC1=O)N1[C@@H]2[C@H]2c3c(cc(C)c(OC)c3O)C[C@@H]([C@@H]1O)N2C)OCO4
- clearance [2]: 183 mL/min
- Cmax [3]: 107 µg/mL
- half-life [4]: 51 h

SMILES: CN1CC(=O)N2[C@H](c3ccc4c(c3)OCO4)c3[nH]c4ccccc4c3C[C@@H]2C1=O
- CL/F [5]: 41.7 mL/min
- Ki [6]: 1.2 nM
- half-life [7]: 17.5 h

SMILES: COc1ccc2c(c1)c(CC(=O)OCC(=O)O)c(C)n2C(=O)c1ccc(Cl)cc1 [ACEMETACIN]
- half-life [8]: 4.5 h
- IC50 [9]: 10 nM
- IC50 [10]: 10 nM

SMILES: CCc1cc2c(cc1N1CCC(N3CCOCC3)CC1)C(C)(C)c1[nH]c3cc(C#N)ccc3c1C2=O [ALECTINIB]
- CL/F [11]: 1370 mL/min
- Vd [12]: 4020 L

SMILES: Cc1[nH]cnc1CN1CCc2c(c3ccccc3n2C)C1=O [ALOSETRON]
- half-life [13]: 1.5 h
- clearance [14]: 600 mL/min
- Ki [15]: 0.5 nM
- Vd [16]: 65 L
- bioavailability [17]: 50%

SMILES: Cc1c(-c2ccc(O)cc2)n(Cc2ccc(OCCN3CCCCCC3)cc2)c2ccc(O)cc12 [BAZEDOXIFENE]
- Tmax [18]: 2.5 h
- AUC [19]: 71 ng·h/mL
- Vd [12]: 14.7 L/kg

SMILES: CC(C)C[C@H]1C(=O)N2CCC[C@H]2[C@]2(O)O[C@](NC(=O)[C@@H]3C=C4c5cccc6[nH]c(Br)c(c56)C[C@H]4N(C)C3)(C(C)C)C(=O)N12 [BROMOCRIPTINE]
- AUC [20]: 2.38 ng·h/mL
- bioavailability [21]: 90%
- half-life [22]: 4.85 h

SMILES: C=CCN1C[C@H](C(=O)N(CCCN(C)C)C(=O)NCC)C[C@@H]2c3cccc4[nH]cc(c34)C[C@H]21 [CABERGOLINE]
- EC50 [23]: 13 nM
- CL renal [24]: 80 mL/min
- Ki [25]: 1.4 nM

SMILES: CC(C(=O)O)c1ccc2c(c1)[nH]c1ccc(Cl)cc12 (stereo not given) [CARPROFEN]
- Tmax [26]: 1 h
- half-life [27]: 8 h

SMILES: COc1ccccc1OCCNCC(O)COc1cccc2[nH]c3ccccc3c12 (stereo not given) [CARVEDILOL]
- half-life [28]: 7 h

SMILES: CC(C)[C@@]1(NC(=O)[C@@H]2C[C@@H]3c4cccc5[nH]cc(c45)C[C@H]3N(C)C2)O[C@@]2(O)[C@@H]3CCCN3C(=O)[C@H](Cc3ccccc3)N2C1=O [DIHYDROERGOCRISTINE]
- Ki [29]: 2.4 nM
- half-life [28]: 3.5 h

SMILES: CN1C[C@H](C(=O)N[C@]2(C)O[C@@]3(O)[C@@H]4CCCN4C(=O)[C@H](Cc4ccccc4)N3C2=O)C[C@@H]2c3cccc4[nH]cc(c34)C[C@H]21 [DIHYDROERGOTAMINE]
- half-life [30]: 9 h
- Ki [31]: 3.7 nM

SMILES: O=C(O[C@@H]1C[C@@H]2C[C@H]3C[C@H](C1)N2CC3=O)c1c[nH]c2ccccc12 [DOLASETRON]
- Vd [32]: 5.8 L/kg

SMILES: CC(C)n1c(/C=C/C(O)CC(O)CC(=O)O)c(-c2ccc(F)cc2)c2ccccc21 (stereo not given) [FLUVASTATIN]
- Vd [32]: 0.35 L/kg

SMILES: COc1ccc2c(c1)c(CC(=O)O)c(C)n2C(=O)c1ccc(Cl)cc1 [INDOMETHACIN]
- half-life [33]: 7 h

SMILES: CCN(CC)C(=O)N[C@H]1C=C2c3cccc4[nH]cc(c34)C[C@H]2N(C)C1 [LISURIDE]
- half-life [22]: 1.8 h
- Vd [34]: 1.73 L/kg

SMILES: COc1ccc2[nH]cc(CCNC(C)=O)c2c1 [MELATONIN]
- half-life [13]: 1 h
- Ki [6]: 0.05 nM
